The values below come from patent US20230339952A1, “MACROCYCLIC HETEROCYCLES AND USES THEREOF” (Kumquat Biosciences Inc., priority 2022, published 2023).

One assay has as its target SOS1 (Homo sapiens (Human), UniProt Q07889). As to the kind of experiment: Ras-SOS interaction assay (HTRF), K-Ras G13D utilized. It counts as binding. Particulars: K-Ras G13D.
The subject of assay [1] is NCI-H1975 (ATCC CRL-5908) cell line comprising an EGFR T790M L858R double mutation. As to the kind of experiment: EGFR-SOS cellular inhibition assay (CellTiter-Glo cell proliferation). Type of assay: cell-based. Particulars: Homo sapiens.
Experimental: A CellTiter-Glo (CTG) luminescent based assay (Promega) is used to assess growth of the cells, as a measurement of the ability of the compounds herein to inhibit EGFR signaling in the cells. […] The day after plating, cells are treated with a dilution series (e.g., a 9 point 3-fold dilution series) of the compounds herein (e.g., approximately 125 μL final volume per well).
Setting [2] is: 120 h, NCI-H1975 cell proliferation, approximately 5 days, read-out: H1975 IC50.

Like-named read-outs stand apart in the source and are kept apart here.

Chain of SOS1 (Q07889 564-1049): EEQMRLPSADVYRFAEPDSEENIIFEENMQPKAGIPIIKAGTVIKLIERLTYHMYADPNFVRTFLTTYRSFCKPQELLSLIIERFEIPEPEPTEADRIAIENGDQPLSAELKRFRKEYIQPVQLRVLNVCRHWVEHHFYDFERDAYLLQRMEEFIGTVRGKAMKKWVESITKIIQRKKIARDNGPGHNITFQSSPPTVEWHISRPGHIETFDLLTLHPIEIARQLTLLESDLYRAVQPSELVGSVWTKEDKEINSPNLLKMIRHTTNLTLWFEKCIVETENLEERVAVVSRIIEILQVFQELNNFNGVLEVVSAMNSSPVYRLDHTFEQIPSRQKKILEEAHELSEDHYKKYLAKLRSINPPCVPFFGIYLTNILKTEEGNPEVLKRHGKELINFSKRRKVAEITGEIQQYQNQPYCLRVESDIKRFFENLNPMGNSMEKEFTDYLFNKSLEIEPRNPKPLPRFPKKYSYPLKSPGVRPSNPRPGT

As to `C[C@H]1Nc2ncnc3c2cc(C2CCS(=O)(=O)CC2)c(=O)n3CC(=O)N(C)CCCCN2CCC(CC2)C(F)(F)c2cccc1c2` [Compound 46, (4R)-6^6-(1,1-dioxidotetrahydro-2H-thiopyran-4-yl)-2,2-difluoro-4,9-dimethyl-6^7,6^8-dihydro-5,9-diaza-6(4,8)-pyrido[2,3-d]pyrimidina-1(4,1)-piperidina-3(1,3)-benzenacyclotridecaphane-6^7,8-dione], the IC50 was less than 100 nM at SOS1 (read-out: SOS1 IC50) and less than 1000 nM in assay [1] (setting [2]).
Consider `Cc1nnc2c3cc(N4CCOCC4)nc(c13)OCCCCCCN1CCC(CC1)C(F)(F)c1cccc(c1)[C@@H](C)N2` [Compound 141, (R)-2,2-difluoro-6^4,4-dimethyl-6^7-morpholino-7-oxa-5-aza-6(1,5)-pyrido[3,4-d]pyridazina-1(4,1)-piperidina-3(1,3)-benzenacyclotridecaphane], for which the results for the IC50 (on SOS1 (read-out: SOS1 IC50); in assay [1] (setting [2])) were less than 100 nM and less than 1000 nM, respectively.
Taken in the same sequence, the figures for `C[C@H]1Nc2ncnc3c2cc(N2CCS(=O)(=O)CC2)c(=O)n3CCCCCN2CCC(CC2)CCC(F)(F)c2cccc1c2` [Compound 181, (3R)-1^6-(1,1-dioxidothiomorpholino)-5,5-difluoro-3-methyl-1^7,1^8-dihydro-2-aza-1(4,8)-pyrido[2,3-d]pyrimidina-8(4,1)-piperidina-4(1,3)-benzenacyclotridecaphan-1^7-one] were less than 100 nM and less than 1000 nM.
In the case of `C[C@H]1Nc2ncnc3c2cc(C2CCS(=O)(=O)CC2)c(=O)n3CCCCC[C@H](O)CN2CCC(CC2)C(F)(F)c2cccc1c2` [Compound 86, (4R,12S)-6^6-(1,1-dioxidotetrahydro-2H-thiopyran-4-yl)-2,2-difluoro-12-hydroxy-4-methyl-6^7,6^8-dihydro-5-aza-6(4,8)-pyrido[2,3-d]pyrimidina-1(4,1)-piperidina-3(1,3)-benzenacyclotridecaphan-6^7-one], the figures for the IC50 (on SOS1 (read-out: SOS1 IC50); in assay [1] (setting [2])) were less than 100 nM and less than 1000 nM, respectively.
On the same counts, the results for `CC(C)N1CCN(c2cc3c4ncnc3n(c2=O)CC(=O)N(C)CCCCN2CCC(CC2)C(F)(F)c2cccc(c2)[C@@H](C)N4)CC1` [Compound 163, (4R)-2,2-difluoro-6^6-(4-isopropylpiperazin-1-yl)-4,9-dimethyl-6^7,6^8-dihydro-5,9-diaza-6(4,8)-pyrido[2,3-d]pyrimidina-1(4,1)-piperidina-3(1,3)-benzenacyclotridecaphane-6^7,8-dione] are less than 100 nM and less than 1000 nM.
With `C[C@H]1Nc2ncnc3c2cc(N2CCN(C4CCOCC4)CC2)c(=O)n3CCCCCCCN2CCC(CC2)C(F)(F)c2cccc1c2F` [Compound 19, (4R)-3^2,2,2-trifluoro-4-methyl-6^6-(4-(tetrahydro-2H-pyran-4-yl)piperazin-1-yl)-6^7,68-dihydro-5-aza-6(4,8)-pyrido[2,3-d]pyrimidina-1(4,1)-piperidina-3(1,3)-benzenacyclotridecaphan-6^7-one], the IC50 was less than 100 nM at SOS1 (read-out: SOS1 IC50) and less than 1000 nM in assay [1] (setting [2]).
On the same counts, the results for `C[C@H]1Nc2ncnc3c2cc(C2(C#N)CC2)c(=O)n3CCCCCC(O)CN2CCC(CC2)C(F)(F)c2cccc1c2` (stereo partly drawn) [Compound 58, 1-((4R)-2,2-difluoro-12-hydroxy-4-methyl-6^7-oxo-6^7,6^8-dihydro-5-aza-6(4,8)-pyrido[2,3-d]pyrimidina-1(4,1)-piperidina-3(1,3)-benzenacyclotridecaphane-6^6-yl)cyclopropane-1-carbonitrile] are less than 100 nM and less than 1000 nM.
As to `C[C@H]1Nc2ncnc3c2cc(N2CCS(=O)(=O)CC2)c(=O)n3CCCCCN2CCC(CC2)CCC(F)(F)c2cccc1c2F` [Compound 119, (3R)-1^6-(1,1-dioxidothiomorpholino)-4^2,5,5-trifluoro-3-methyl-1^7,1^8-dihydro-2-aza-1(4,8)-pyrido[2,3-d]pyrimidina-8(4,1)-piperidina-4(1,3)-benzenacyclotridecaphan-1^7-one], the half-inhibitory concentration (IC50) was less than 100 nM at SOS1 (read-out: SOS1 IC50) and less than 1000 nM in assay [1] (setting [2]).
On the same counts, the results for `C[C@H]1Nc2ncnc3c2cc(C2CCS(=O)(=O)CC2)c(=O)n3CCCCCC(C#N)CN2CCC(CC2)C(F)(F)c2cccc1c2` (stereo partly drawn) [Compound 114, (4R)-6^6-(1,1-dioxidotetrahydro-2H-thiopyran-4-yl)-2,2-difluoro-4-methyl-6^7-oxo-6^7,6^8-dihydro-5-aza-6(4,8)-pyrido[2,3-d]pyrimidina-1(4,1)-piperidina-3(1,3)-benzenacyclotridecaphane-12-carbonitrile] are less than 100 nM and less than 1000 nM.
Taken in the same sequence, the figures for `C[C@@H]1C(=O)NCCCCn2c(=O)c(C3CCS(=O)(=O)CC3)cc3c(ncnc32)N[C@H](C)c2cccc(c2)C(F)(F)C2CCN1CC2` [Compound 106, (4R,13R)-6^6-(1,1-dioxidotetrahydro-2H-thiopyran-4-yl)-2,2-difluoro-4,13-dimethyl-6^7,6^8-dihydro-5,11-diaza-6(4,8)-pyrido[2,3-d]pyrimidina-1(4,1)-piperidina-3(1,3)-benzenacyclotridecaphane-6^7,12-dione] were less than 100 nM and less than 1000 nM.
On the same counts, the results for `CC(C)N1CCN(c2cc3c4ncnc3n(c2=O)CC(=O)NCCCCN2CCC(CC2)C(F)(F)c2cccc(c2)[C@@H](C)N4)CC1` [Compound 53, (4R)-2,2-difluoro-6^6-(4-isopropylpiperazin-1-yl)-4-methyl-6^7,6^8-dihydro-5,9-diaza-6(4,8)-pyrido[2,3-d]pyrimidina-1(4,1)-piperidina-3(1,3)-benzenacyclotridecaphane-6^7,8-dione] are less than 100 nM and less than 1000 nM.
Take `Cc1nc2c3cc(C4(C#N)CC4)c(=O)n(c3n1)CCCCCOCC(F)(F)c1cccc(c1F)[C@@H](C)N2` [Compound 88, 1-((3R)-4^2,5,5-trifluoro-1^2,3-dimethyl-1^7-oxo-1^7,1^8-dihydro-7-oxa-2-aza-1(4,8)-pyrido[2,3-d]pyrimidina-4(1,3)-benzenacyclododecaphane-1^6-yl)cyclopropane-1-carbonitrile]: the results for the half-maximal inhibitory concentration (IC50) (on SOS1 (read-out: SOS1 IC50); in assay [1] (setting [2])) were 100 to 5000 nM and more than 10000 nM, respectively.
Taken in the same sequence, the figures for `C[C@H]1Nc2ncnc3c2cc(C2(C#N)CC2)c(=O)n3CCCC(=O)N(C)CCN2CCC(CC2)C(F)(F)c2cccc1c2` [Compound 27, 1-((4R)-2,2-difluoro-4,11-dimethyl-6^7,10-dioxo-6^7,6^8-dihydro-5,11-diaza-6(4,8)-pyrido[2,3-d]pyrimidina-1(4,1)-piperidina-3(1,3)-benzenacyclotridecaphane-6^6-yl)cyclopropane-1-carbonitrile] were less than 100 nM and less than 1000 nM.
In the case of `C[C@H]1Nc2ncnc3c2cc(C2CCS(=O)(=O)CC2)c(=O)n3CCCN(C)C(=O)CCN2CCC(CC2)C(F)(F)c2cccc1c2` [Compound 41, (4R)-6^6-(1,1-dioxidotetrahydro-2H-thiopyran-4-yl)-2,2-difluoro-4,10-dimethyl-6^7,6^8-dihydro-5,10-diaza-6(4,8)-pyrido[2,3-d]pyrimidina-1(4,1)-piperidina-3(1,3)-benzenacyclotridecaphane-6^7,11-dione], the values for the half-maximal inhibitory concentration (IC50) (on SOS1 (read-out: SOS1 IC50); in assay [1] (setting [2])) were less than 100 nM and less than 1000 nM, respectively.
On the same counts, the results for `CC1C/C=C\CCCN2CCC(CC2)C(F)(F)c2cccc(c2F)[C@@H](C)Nc2ncnc3c2cc(C2(C#N)CC2)c(=O)n31` (stereo partly drawn) [Compound 97, 1-((4R,Z)-3^2,2,2-trifluoro-4,7-dimethyl-6^7-oxo-6^7,6^8-dihydro-5-aza-6(4,8)-pyrido[2,3-d]pyrimidina-1(4,1)-piperidina-3(1,3)-benzenacyclotridecaphan-9-en-6^6-yl)cyclopropane-1-carbonitrile] are less than 100 nM and less than 1000 nM.
Taken in the same sequence, the figures for `C[C@H]1Nc2ncnc3c2cc(C2CCS(=O)(=O)CC2)c(=O)n3CC/C=C\CC(C)(C)CN2CCC(CC2)C(F)(F)c2cccc1c2` [Compound 92, (4R,Z)-6^6-(1,1-dioxidotetrahydro-2H-thiopyran-4-yl)-2,2-difluoro-4,12,12-trimethyl-6^7,6^8-dihydro-5-aza-6(4,8)-pyrido[2,3-d]pyrimidina-1(4,1)-piperidina-3(1,3)-benzenacyclotridecaphan-9-en-6^7-one] were less than 100 nM and less than 1000 nM.
Regarding `C[C@H]1Nc2ncnc3c2cc(C2CCS(=O)(=O)CC2)c(=O)n3CCCNC(=O)CCN2CCC(CC2)C(F)(F)c2cccc1c2` [Compound 91, (4R)-6^6-(1,1-dioxidotetrahydro-2H-thiopyran-4-yl)-2,2-difluoro-4-methyl-6^7,6^8-dihydro-5,10-diaza-6(4,8)-pyrido[2,3-d]pyrimidina-1(4,1)-piperidina-3(1,3)-benzenacyclotridecaphane-6^7,11-dione], the figures for the concentration for half-maximal inhibition (IC50) (on SOS1 (read-out: SOS1 IC50); in assay [1] (setting [2])) were less than 100 nM and less than 1000 nM, respectively.
Consider `Cc1nc2c3cc(C4CCS(=O)(=O)CC4)c(=O)n(c3n1)CCCC/C=C\CC(C)(O)C(F)(F)c1cccc(c1)[C@@H](C)N2` (stereo partly drawn) [Compound 12, (3R,Z)-1^6-(1,1-dioxidotetrahydro-2H-thiopyran-4-yl)-5,5-difluoro-6-hydroxy-1^2,3,6-trimethyl-1^7,1^8-dihydro-2-aza-1(4,8)-pyrido[2,3-d]pyrimidina-4(1,3)-benzenacyclotridecaphan-8-en-1^7-one], for which the values for the IC50 (at SOS1 (read-out: SOS1 IC50); in assay [1] (setting [2])) were 100 to 5000 nM and less than 1000 nM, respectively.
Regarding `C[C@H]1Nc2ncnc3c2cc(C2(C#N)CC2)c(=O)n3CCCC/C=C\CN2CCC(CC2)C(F)(F)c2cccc1c2` [Compound 159, 1-((4R,Z)-2,2-difluoro-4-methyl-6^7-oxo-6^7,6^8-dihydro-5-aza-6(4,8)-pyrido[2,3-d]pyrimidina-1(4,1)-piperidina-3(1,3)-benzenacyclotridecaphan-11-en-6^6-yl)cyclopropane-1-carbonitrile], the IC50 on SOS1 (read-out: IC50 value against SOS1) was less than 50 nM; on SOS1 (read-out: SOS1 IC50) it was less than 100 nM; in assay [1] (setting [2]), less than 1000 nM; in assay [1] (NCI-H1975, EGFR T790M L858R double mutation, read-out: IC50 in inhibiting growth of NCI-H1975 cell line), less than 500 nM.
